Columns and labels:
[1] = Log D7.4 measurement by chromatographic method; format: physicochemical; conditions: experimental distribution coefficient at pH 7.4; read-out: e log D7.4
Procedure: (§1) Both were experimentally obtained employing HPLC-based protocols.[39],[40] […] PPB values were determined in view of how they could impact future pharmacokinetic studies of compounds as VHL inhibitors, or once conjugated into bifunctional PROTACs, for which PPB can be a limiting factor.
The determination of the log D7.4 values was performed by a chromatographic method as described previously.[41],[62] […] Subsequently, the mean retention times (n = 2) of the analytes were taken to calculate their log D7.4 values.

[2] = target: human serum albumin (Homo sapiens, UniProt P02768); test: PPB studies on HSA HPLC column; format: in vitro ADME; conditions: CHIRALPAK HSA HPLC column (human serum albumin); experimentally determined percentage of the compound bound to human serum albumin
Procedure: as §1
PPB was estimated by correlating the logarithmic retention times of the analytes on a […] HSA 50 × 3 mm, 5 μm column with the literature-known % PPB values (converted into log K values) of the following drugs: warfarin, ketoprofen, budesonide, nizatidine, indomethacin, acetylsalicylic acid, carbamazepine, piroxicam, nicardipine, and cimetidine.[63] Samples were dissolved in MeCN/DMSO 9:1 to achieve a final concentration of 0.5 mg/mL. The mobile phase A was 50 mM ammonium acetate adjusted to pH 7.4 with 10% NaOH, while mobile phase B was iPrOH. […] After injecting 3 μL of the sample, a linear gradient from 100% A to 30% iPrOH in 5.4 min was applied. From 5.4 to 18 min, 30% iPrOH was kept, followed by switching back to 100% A in 1.0 min and a re-equilibration time of 6 min.

[3] = target: T1, VCB protein (Homo sapiens, UniProt P40337); test: Competitive fluorescence polarization (FP) binding assay, displacement of FAM-labeled HIF-1α peptide; conditions: for Kd: dissociation constant, determined by FP, mean ± S.E.M., back-calculated from IC50; for IC50: mean IC50 values obtained from the FP assay, read-out: IC50 ± S.E.M, FP assay
T1 construct: A plasmid containing pVHL54–213 with an N-terminal His6 tag; His6 (N, cleaved yes); made in house; host or cells: Escherichia coli BL21 (DE3)
Procedure: Binding of a ligand to the HIF binding site of VHL displaces a fluorescein-labeled, 19-mer HIF-1α oligopeptide, leading to a change in polarization of emitted light upon excitation of the competing fluorescent probe.
All components were dissolved from stock solutions using 100 mM Bis–Tris, 100 mM NaCl, 1 mM DTT, pH 7.0, to yield a final assay volume of 15 μL. DMSO was added as appropriate to ensure a final concentration of 2% (v/v). Control wells containing VCB and JC9 with no compound (zero displacement), or JC9, in the absence of protein (maximum displacement) were also included to allow for normalization. Percentage displacement values were obtained by normalization of controls and were plotted against log[compound]. The IC50 values were determined for each titration using non-linear regression analysis with Prism GraphPad (Table S1). Dissociation constants Kd for the compound–VCB interaction were back-calculated from the measured IC50 values by using a displacement binding model as described.[16],[64]

Structure (SMILES) | chromatographic logD [1] | fraction unbound at 0.5 mg/mL [2] | Kd [3] | IC50 [3]
Cc1ncsc1-c1ccc(CNC(=O)[C@@H]2C[C@@H](O)CN2C(=O)[C@@H](NC(=O)C2(C#N)CC2)C(C)(C)C)c2ccccc12 [Compound 22, (2S,4R)-1-((S)-2-(1-Cyanocyclopropane-1-carboxamido)-3,3-dimethylbutanoyl)-4-hydroxy-N-((4-(4-methylthiazol-5-yl)naphthalen-1-yl)methyl)pyrrolidine-2-carboxamide] | 2.3 | 0.07 | 397 ± 70 nM | 2020 ± 271 nM
Cc1ncsc1-c1cc(Cl)c(CNC(=O)[C@@H]2C[C@@H](O)CN2C(=O)[C@@H](NC(=O)C2(C#N)CC2)C(C)(C)C)cc1Cl [Compound 17, (2S,4R)-1-((S)-2-(1-Cyanocyclopropane-1-carboxamido)-3,3-dimethylbutanoyl)-N-(2,5-dichloro-4-(4-methylthiazol-5-yl)benzyl)-4-hydroxypyrrolidine-2-carboxamide] | 2.5 | 0.07 | 883 ± 68 nM | 4560 ± 208 nM
COc1cc(-c2scnc2C)c(OC)cc1CNC(=O)[C@@H]1C[C@@H](O)CN1C(=O)[C@@H](NC(=O)C1(C#N)CC1)C(C)(C)C [Compound 15, (2S,4R)-1-((S)-2-(1-Cyanocyclopropane-1-carboxamido)-3,3-dimethylbutanoyl)-N-(2,5-dimethoxy-4-(4-methylthiazol-5-yl)benzyl)-4-hydroxypyrrolidine-2-carboxamide] | 1.9 | 0.14 | 1270 ± 150 nM | 6530 ± 428 nM
Cc1ncsc1-c1ccc(CNC(=O)[C@@H]2C[C@@H](O)CN2C(=O)[C@@H](NC(=O)C2(C#N)CC2)C(C)(C)C)c(C)c1C [Compound 18, (2S,4R)-1-((S)-2-(1-Cyanocyclopropane-1-carboxamido)-3,3-dimethylbutanoyl)-N-(2,3-dimethyl-4-(4-methylthiazol-5-yl)benzyl)-4-hydroxypyrrolidine-2-carboxamide] | 2.3 | 0.09 | 322 ± 38 nM | 1650 ± 100 nM
Cc1cc(-c2scnc2C)c(F)cc1CNC(=O)[C@@H]1C[C@@H](O)CN1C(=O)[C@@H](NC(=O)C1(F)CC1)C(C)(C)C [Compound 28, (2S,4R)-N-(5-Fluoro-2-methyl-4-(4-methylthiazol-5-yl)benzyl)-1-((S)-2-(1-fluorocyclopropane-1-carboxamido)-3,3-dimethylbutanoyl)-4-hydroxypyrrolidine-2-carboxamide] | 2.3 | 0.1 | 80 ± 23 nM | 310 ± 65 nM
Cc1ncsc1-c1ccc(CNC(=O)[C@@H]2C[C@@H](O)CN2C(=O)[C@@H](NC(=O)C2(C#N)CC2)C(C)(C)C)c(F)c1F [Compound 19, (2S,4R)-1-((S)-2-(1-Cyanocyclopropane-1-carboxamido)-3,3-dimethylbutanoyl)-N-(2,3-difluoro-4-(4-methylthiazol-5-yl)benzyl)-4-hydroxypyrrolidine-2-carboxamide] | 2.2 | 0.11 | 1450 ± 180 nM | 7450 ± 624 nM
Cc1cc(-c2scnc2C)c(C)cc1CNC(=O)[C@@H]1C[C@@H](O)CN1C(=O)[C@@H](NC(=O)C1(C#N)CC1)C(C)(C)C [Compound 14, (2S,4R)-1-((S)-2-(1-Cyanocyclopropane-1-carboxamido)-3,3-dimethylbutanoyl)-N-(2,5-dimethyl-4-(4-methylthiazol-5-yl)benzyl)-4-hydroxypyrrolidine-2-carboxamide] | 2.2 | 0.1 | 528 ± 16 nM | 2740 ± 122 nM
Cc1ncsc1-c1ccc(CNC(=O)[C@@H]2C[C@@H](O)CN2C(=O)[C@@H](NC(=O)C2(F)CC2)C(C)(C)C)cc1 [Compound 38, (2S,4R)-1-((S)-2-(1-Fluorocyclopropane-1-carboxamido)-3,3-dimethylbutanoyl)-4-hydroxy-N-(4-(4-methylthiazol-5-yl)benzyl)pyrrolidine-2-carboxamide, reference compound] | 1.8 | 0.14 |  | 
COc1c(CNC(=O)[C@@H]2C[C@@H](O)CN2C(=O)[C@@H](NC(=O)C2(C#N)CC2)C(C)(C)C)ccc(-c2scnc2C)c1F [Compound 21, (2S,4R)-1-((S)-2-(1-Cyanocyclopropane-1-carboxamido)-3,3-dimethylbutanoyl)-N-(3-fluoro-2-methoxy-4-(4-methylthiazol-5-yl)benzyl)-4-hydroxypyrrolidine-2-carboxamide] | 2.1 | 0.11 |  | 

The remaining lines, values ahead:

chromatographic logD [1] | fraction unbound at 0.5 mg/mL [2] | Kd [3] | IC50 [3] | Structure (SMILES)
2.2 | 0.1 | 4110 ± 560 nM | 21100 ± 2180 nM | Cc1cc(-c2scnc2C)cc(C)c1CNC(=O)[C@@H]1C[C@@H](O)CN1C(=O)[C@@H](NC(=O)C1(C#N)CC1)C(C)(C)C [Compound 10, (2S,4R)-1-((S)-2-(1-Cyanocyclopropane-1-carboxamido)-3,3-dimethylbutanoyl)-N-(2,6-dimethyl-4-(4-methylthiazol-5-yl)benzyl)-4-hydroxypyrrolidine-2-carboxamide]
2.2 | 0.1 | 3920 ± 420 nM | 15900 ± 934 nM | Cc1ncsc1-c1ccc2c(c1)CC[C@@H]2NC(=O)[C@@H]1C[C@@H](O)CN1C(=O)[C@@H](NC(=O)C1(C#N)CC1)C(C)(C)C [Compound 34, (2S,4R)-1-((S)-2-(1-Cyanocyclopropane-1-carboxamido)-3,3-dimethylbutanoyl)-4-hydroxy-N-((S)-5-(4-methylthiazol-5-yl)-2,3-dihydro-1H-inden-1-yl)pyrrolidine-2-carboxamide]
2 | 0.11 | 496 ± 62 nM | 2260 ± 73 nM | Cc1cc(CNC(=O)[C@@H]2C[C@@H](O)CN2C(=O)[C@@H](NC(=O)C2(C#N)CC2)C(C)(C)C)ccc1-c1scnc1C [Compound 6, (2S,4R)-1-((S)-2-(1-Cyanocyclopropane-1-carboxamido)-3,3-dimethylbutanoyl)-4-hydroxy-N-(3-methyl-4-(4-methylthiazol-5-yl)benzyl)pyrrolidine-2-carboxamide]
2.3 | 0.1 | 4040 ± 530 nM | 16600 ± 2130 nM | Cc1ncsc1-c1cc2c(cc1F)[C@@H](NC(=O)[C@@H]1C[C@@H](O)CN1C(=O)[C@@H](NC(=O)C1(C#N)CC1)C(C)(C)C)CC2 [Compound 35, (2S,4R)-1-((S)-2-(1-Cyanocyclopropane-1-carboxamido)-3,3-dimethylbutanoyl)-N-((S)-6-fluoro-5-(4-methylthiazol-5-yl)-2,3-dihydro-1H-inden-1-yl)-4-hydroxypyrrolidine-2-carboxamide]
2.3 |  | 2550 ± 510 nM | 10600 ± 2030 nM | Cc1ncsc1-c1cc2c(cc1F)[C@@H](NC(=O)[C@@H]1C[C@@H](O)CN1C(=O)[C@@H](NC(=O)C1(F)CC1)C(C)(C)C)CC2 [Compound 36, (2S,4R)-N-((S)-6-Fluoro-5-(4-methylthiazol-5-yl)-2,3-dihydro-1H-inden-1-yl)-1-((S)-2-(1-fluorocyclopropane-1-carboxamido)-3,3-dimethylbutanoyl)-4-hydroxypyrrolidine-2-carboxamide]

— paper PMC10544018 (Journal of Medicinal Chemistry, 2023)
